# In PMC7076788, “Interactions of Destruxin A with Silkworms’ Arginine tRNA Synthetase and Lamin-C Proteins” (Toxins, 2020):
# Changes are numbered by the printed parent chain. Where a SMILES comes first, the peptide text is derived from it. [ ]: non-standard residue; d: D form. dLac(3-vinyl) = C=CC[C@@H](O)C(=O)O; NMeV = CN[C@H](C(=O)O)C(C)C; NMeA = CN[C@@H](C)C(=O)O; βAla = NCCC(=O)O
# How the values were obtained:
# Assay in all cases: bio-layer interferometry, immobilised protein
# Type in all cases: binding
# BmArgRS [1] = target: T1, BmArgRS (Bombyx mori, UniProt A0A8R1WK71)
# T1 construct: gene 101737924; apparently full length (catalytic core 216-481)
# T1 sequence (A0A8R1WK71 1-683): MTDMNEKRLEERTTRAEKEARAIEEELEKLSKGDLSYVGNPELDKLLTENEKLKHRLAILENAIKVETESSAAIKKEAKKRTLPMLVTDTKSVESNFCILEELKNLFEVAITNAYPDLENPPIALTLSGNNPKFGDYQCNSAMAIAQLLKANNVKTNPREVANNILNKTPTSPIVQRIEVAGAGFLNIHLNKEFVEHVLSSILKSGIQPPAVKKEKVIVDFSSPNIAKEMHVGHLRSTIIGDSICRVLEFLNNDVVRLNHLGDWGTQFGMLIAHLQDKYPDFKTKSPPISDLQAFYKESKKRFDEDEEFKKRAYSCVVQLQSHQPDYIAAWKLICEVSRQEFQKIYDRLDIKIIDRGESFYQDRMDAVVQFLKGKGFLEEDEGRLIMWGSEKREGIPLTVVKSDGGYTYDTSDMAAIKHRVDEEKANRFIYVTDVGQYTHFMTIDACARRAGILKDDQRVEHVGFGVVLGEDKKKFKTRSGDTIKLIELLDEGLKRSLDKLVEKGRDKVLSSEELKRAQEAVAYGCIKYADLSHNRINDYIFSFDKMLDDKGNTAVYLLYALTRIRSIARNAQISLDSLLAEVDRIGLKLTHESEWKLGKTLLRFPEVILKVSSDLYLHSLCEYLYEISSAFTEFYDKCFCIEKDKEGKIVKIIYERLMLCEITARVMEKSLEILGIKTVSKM
# Excerpt: bio-layer interferometry, immobilised protein on BmArgRS
# BmArgRS [2] = target: T2, BmArgRS (Bombyx mori, UniProt A0A8R1WK71, V468A)
# T2 construct: gene 101737924; apparently full length (catalytic core 216-481)
# T2 sequence (A0A8R1WK71 1-683 V468A): T1 sequence (A0A8R1WK71 1-683) with V468A
# BmArgRS [3] = target: T3, BmArgRS (Bombyx mori, UniProt A0A8R1WK71, K475A)
# T3 construct: gene 101737924; apparently full length (catalytic core 216-481)
# T3 sequence (A0A8R1WK71 1-683 K475A): T1 sequence (A0A8R1WK71 1-683) with K475A
smiles,measurement,setting,value
C=CC[C@H]1OC(=O)CCNC(=O)[C@H](C)N(C)C(=O)[C@H](C(C)C)N(C)C(=O)[C@H]([C@@H](C)CC)NC(=O)[C@@H]2CCCN2C1=O [Destruxin A] (cyclo(I[NMeV][NMeA][βAla][dLac(3-vinyl)]P)),Kd,BmArgRS [1],55.3 µM
same,Kd,BmArgRS [2],53 µM
same,Kd,BmArgRS [3],5.71 µM
